Values quoted from earlier work, collected in patent US20060188529A1 (priority 2004, published 2006).

Test system: apo EKO mice
[1] = fenofibrate added to phytosterols

Q: For `CC(C)OC(=O)C(C)(C)Oc1ccc(C(=O)c2ccc(Cl)cc2)cc1` [fenofibrate, 2-[4-(4-chlorobenzoyl)phenoxy]-2-methyl-propanoic acid, 1-methylethyl ester], which “effect on plasma triglyceride levels” value (combination of fenofibrate to phytosterols) is on record?
A: Its value is “no effect”.

Q: And the “decrease of HDL cholesterol concentrations” value [1]?
A: The value was 50%.

Q: What about the “increase of plasma total cholesterol levels” value [1] of the same compound?
A: The value was greater than 50%.
